Measured values as given in PubChem BioAssay (NCI).
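96-well plates; 48 h exposure; 5 concentrations. Endpoints by linear interpolation between flanking doses. Not reached: highest tested concentration assigned. GI50 = concentration required for 50% inhibition of growth. TGI denotes the concentration required for complete inhibition of growth.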

What was measured:
Assay in all cases: DTP human tumour cell line panel, 48 h
OVCAR-3 ovarian = system: OVCAR-3 ovarian
CCRF-CEM leukemia = system: CCRF-CEM leukemia
RPMI-8226 leukemia = system: RPMI-8226 leukemia
OVCAR-8 ovarian = system: OVCAR-8 ovarian
SF-539 CNS = system: SF-539 CNS
A549 NSCLC = system: A549 NSCLC
ACHN renal = system: ACHN renal
OVCAR-5 ovarian = system: OVCAR-5 ovarian
MALME-3M melanoma = system: MALME-3M melanoma
UACC-62 melanoma = system: UACC-62 melanoma
MDA-MB-231 breast = system: MDA-MB-231 breast
SNB-75 CNS = system: SNB-75 CNS
U251 CNS = system: U251 CNS
SW-620 colon = system: SW-620 colon
SK-MEL-2 melanoma = system: SK-MEL-2 melanoma
MCF7 breast = system: MCF7 breast
MDA-MB-435 = system: MDA-MB-435
MOLT-4 leukemia = system: MOLT-4 leukemia
NCI/ADR-RES ovarian = system: NCI/ADR-RES ovarian
SF-295 CNS = system: SF-295 CNS
COLO 205 colon = system: COLO 205 colon
NCI-H226 lung = system: NCI-H226 lung
HOP-92 NSCLC = system: HOP-92 NSCLC
EKVX NSCLC = system: EKVX NSCLC
HS 578T breast = system: HS 578T breast
RXF 393 renal = system: RXF 393 renal
NCI-H23 lung = system: NCI-H23 lung
DU-145 prostate = system: DU-145 prostate
TK-10 renal = system: TK-10 renal
SK-OV-3 ovarian = system: SK-OV-3 ovarian
HT29 colon = system: HT29 colon
SNB-19 CNS = system: SNB-19 CNS
SF-268 CNS = system: SF-268 CNS
T-47D breast = system: T-47D breast
IGROV1 ovarian = system: IGROV1 ovarian
HOP-62 NSCLC = system: HOP-62 NSCLC
A498 renal = system: A498 renal
SK-MEL-28 melanoma = system: SK-MEL-28 melanoma
SR leukemia = system: SR leukemia
HCT-15 colon = system: HCT-15 colon
K-562 leukemia = system: K-562 leukemia
HCC-2998 colon = system: HCC-2998 colon
SN12C renal = system: SN12C renal
UACC-257 melanoma = system: UACC-257 melanoma
UO-31 renal = system: UO-31 renal
786-0 renal = system: 786-0 renal
SK-MEL-5 melanoma = system: SK-MEL-5 melanoma
BT-549 breast = system: BT-549 breast
PC-3 prostate = system: PC-3 prostate
NCI-H460 lung = system: NCI-H460 lung
M14 melanoma = system: M14 melanoma
NCI-H522 lung = system: NCI-H522 lung
CAKI-1 renal = system: CAKI-1 renal
KM12 colon = system: KM12 colon
HCT-116 colon = system: HCT-116 colon

## COc1cccc(/C(COc2ccc3c(c2)oc(=O)c2ccccc23)=N\O)c1
OVCAR-3 ovarian
  GI50: 45 µM
  TGI: > 100 µM
CCRF-CEM leukemia
  GI50: 23.2 µM
  TGI: > 100 µM
RPMI-8226 leukemia
  GI50: 30.3 µM
  TGI: > 100 µM
OVCAR-8 ovarian
  GI50: 20.8 µM
  TGI: 54 µM
SF-539 CNS
  GI50: 18.3 µM
  TGI: 44.3 µM
A549 NSCLC
  GI50: 16.9 µM
  TGI: 51.1 µM
ACHN renal
  GI50: 26.7 µM
  TGI: > 100 µM
OVCAR-5 ovarian
  GI50: > 100 µM
  TGI: > 100 µM
MALME-3M melanoma
  GI50: 33 µM
  TGI: 90.1 µM
UACC-62 melanoma
  GI50: 24.8 µM
  TGI: 82.1 µM
MDA-MB-231 breast
  GI50: 22.2 µM
  TGI: 64.5 µM
SNB-75 CNS
  GI50: 25.7 µM
  TGI: 76.7 µM
U251 CNS
  GI50: 34.4 µM
  TGI: > 100 µM
SW-620 colon
  GI50: 42.5 µM
  TGI: > 100 µM
SK-MEL-2 melanoma
  GI50: 28.6 µM
  TGI: 69 µM
MCF7 breast
  GI50: > 100 µM
  TGI: > 100 µM
MDA-MB-435
  GI50: 19.9 µM
  TGI: 52.8 µM
MOLT-4 leukemia
  GI50: 6.63 µM
  TGI: 35 µM
NCI/ADR-RES ovarian
  GI50: 20 µM
  TGI: > 100 µM
SF-295 CNS
  GI50: 33.3 µM
  TGI: > 100 µM
COLO 205 colon
  GI50: 25.8 µM
  TGI: 75.9 µM
NCI-H226 lung
  GI50: 27.7 µM
  TGI: 62 µM
HOP-92 NSCLC
  GI50: 71.8 µM
  TGI: > 100 µM
EKVX NSCLC
  GI50: 12.5 µM
  TGI: 66.2 µM
HS 578T breast
  GI50: 67.1 µM
  TGI: > 100 µM
RXF 393 renal
  GI50: 18.4 µM
  TGI: 38.3 µM
NCI-H23 lung
  GI50: 33.6 µM
  TGI: > 100 µM
DU-145 prostate
  GI50: 16.9 µM
  TGI: 60.7 µM
TK-10 renal
  GI50: 33.7 µM
  TGI: > 100 µM
SK-OV-3 ovarian
  GI50: > 100 µM
  TGI: > 100 µM
HT29 colon
  GI50: 29.6 µM
  TGI: > 100 µM
SNB-19 CNS
  GI50: 52 µM
  TGI: > 100 µM
SF-268 CNS
  GI50: > 100 µM
  TGI: > 100 µM
T-47D breast
  GI50: 29.4 µM
  TGI: > 100 µM
IGROV1 ovarian
  GI50: 28.4 µM
  TGI: 58.5 µM
HOP-62 NSCLC
  GI50: 37 µM
  TGI: > 100 µM
A498 renal
  GI50: 30.5 µM
  TGI: 81.8 µM
SK-MEL-28 melanoma
  GI50: 84.7 µM
  TGI: > 100 µM
SR leukemia
  GI50: 10.3 µM
  TGI: > 100 µM
HCT-15 colon
  GI50: 37.2 µM
  TGI: > 100 µM
K-562 leukemia
  GI50: 13.6 µM
  TGI: 85.3 µM
HCC-2998 colon
  GI50: 44.1 µM
  TGI: > 100 µM
SN12C renal
  GI50: 32.8 µM
  TGI: 96 µM
UACC-257 melanoma
  GI50: 25 µM
  TGI: 61.1 µM
UO-31 renal
  GI50: 17.3 µM
  TGI: 34.3 µM
786-0 renal
  GI50: 16.9 µM
  TGI: 58 µM
SK-MEL-5 melanoma
  GI50: 17.1 µM
  TGI: 35.7 µM
BT-549 breast
  GI50: 23 µM
  TGI: 57.9 µM
PC-3 prostate
  GI50: 29.5 µM
  TGI: > 100 µM
NCI-H460 lung
  GI50: > 100 µM
  TGI: > 100 µM
M14 melanoma
  GI50: 32 µM
  TGI: > 100 µM
NCI-H522 lung
  GI50: 20.6 µM
  TGI: 61.3 µM
CAKI-1 renal
  GI50: 26.1 µM
  TGI: 77.2 µM
KM12 colon
  GI50: 15.1 µM
  TGI: 39.1 µM
HCT-116 colon
  GI50: 13.2 µM
  TGI: 33.4 µM
